We go through three compounds from US20230302009A1, “BACE1 INHIBITOR TREATMENT FOR S[…] STORM” (priority 2020, published 2023).

The conditions of data set [1]: AD clinical trials (refs 27, 28, 34, 35); cited from earlier work.
Data set [2] has as its system LPS-challenged mice. Put plainly: Survival rescue after lethal dose of LPS. Type of data set: in vivo, C57BL/6 mice.
The test system of data set [3] is LPS-challenged mice. Put plainly: H&E histology, tissue injury score after LPS. Particulars: LPS only or LPS plus MK-8931.
For data set [4], the system named is LPS-challenged mice. Particulars: mice without LPS treatment, MK-8931 50 mg/kg oral.
Where [5] appears, read: MK-8931 plus LPS versus LPS only.

`C[C@@]1(c2nc(NC(=O)c3ncc(C(F)(F)F)cc3Cl)ccc2F)CO[C@@](C)(C(F)(F)F)C(N)=N1` [CNP50]: in data set [1], the tolerability in patients entry is “well-tolerated”.

Turning to `CN1C(N)=N[C@](C)(c2cc(NC(=O)c3ccc(F)cn3)ccc2F)CS1(=O)=O` [MK-8931], the mice died with LPS-challenged mice [2] (LPS 15 mg/kg i.p. plus MK-8931 50 mg/kg oral, 3 of 14 mice, between 20 to 96 hours after LPS) turned out to be 21.4%. Besides, the mice survived in the data set on LPS-challenged mice [2] (LPS 15 mg/kg i.p. plus MK-8931 50 mg/kg oral, 11 of the 14 mice) is 78.6%. In the data set on LPS-challenged mice [2] (setting [5]), the increase of survival was determined as 367% and the “reduction of mortality rate” value is reported as 3.7 fold. Besides, the “tissue injury in spleen and liver” value in the data set with LPS-challenged mice [3] is “No significant tissue injury”. Further, the “plasma levels of cytokines/chemokines, MK-8931 alone” value with LPS-challenged mice [4] is “did not affect”. In addition, the tolerability in patients entry in data set [1] is “safe oral drug and well-tolerated”.

With `CC#Cc1cncc(-c2ccc3c(c2)C2(N=C(C)C(N)=N2)C2(CCC(OC)CC2)C3)c1` (stereo not drawn) [AZD3293], in data set [1], the tolerability in patients result is recorded as “well-tolerated”.
